Measurements: patent publication US4309559A, “Sulphonamides useful as pesticides” (FBC Limited, priority 1977, dated 1982)

What was measured:
Format in all cases: in vivo
[1] = test system: Ryegrass (Lolium perenne); test: Post-emergence foliar spray, herbicidal/growth regulant response, ryegrass; conditions: 168 h, foliar spray 11.2 kg/ha, 7 days, 0=no effect, 100=complete kill, read-out: herbicidal or growth regulant response index
Method in brief: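 Seedlings grown in potting compost at 22 °C, 14 h light, sprayed 14 days after sowing with compound in 1:1 aqueous acetone at 11.2 kg/ha in 450 l/ha. Visual scoring of herbicidal or growth-regulant response after 7 days versus untreated control, 0 = no effect to 100 = complete kill.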

[2] = test system: Mustard (Sinapis alba); test: Soil incorporation (attaclay/sand dust), growth regulatory or herbicidal effects, mustard; conditions: 504 h, soil incorporation 26 ppm, 21 days, 0=no effect, 100=complete kill, read-out: growth regulatory or herbicidal effect score
Method in brief: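 Dust-formulated compound incorporated in potting compost, 26 or 130 ppm w/v; seeds sown, watered, 21 d at 22° C, 65-85% RH, 14 h/day 13,000 lux. Visual growth-regulatory/herbicidal score 0 (no effect) to 100 (complete kill) vs untreated.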

[3] = test system: Barley (Hordeum vulgare); test: Pre-emergence soil surface spray, barley; conditions: soil surface spray 2.8 kg/ha, 21 days, 0=no effect, 100=complete kill
Method in brief: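 Compounds are applied to the compost surface right after sowing, at 2.8 kg active ingredient per hectare. After 21 days in a controlled environment room at 22° C., any difference from untreated plants is rated visually from 0 (no effect) to 100 (complete kill).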

CCCS(=O)(=O)N(c1c(C)cccc1C)C(C)C(=O)OCC (stereo not drawn) [Example 24, N-(1-[ethoxycarbonyl]ethyl)-2',6'-dimethyl-1-propanesulphonanilide]
pest or weed control at 11200 g/ha [1]: 75%
pest or weed control at 26 µg/mL [2]: 100%
growth regulatory or herbicidal effect score [3]: 30
